From patent publication US20260008746A1, “CATIONIC LIPID COMPOUND WITH HIGH EFFICIENCY, LOW TOXICITY AND STABLE EXPRESSION, AND COMPOSITION COMPRISNG SAME” (HANGZHOU TIANLONG PHARMACEUTICAL CO., LTD, priority 2023, published 2026)

Assays:
[1] = system: 293T cells; test: Fluorescent detection of Fluc-mRNA (cell transfection efficiency of LNP formulations); assay type: cell-based; conditions: for Relative light unit (RLU): LNP formulation containing 0.3 μg Fluc-mRNA, 96-well plate, 24 hours; for Multiples (YK-107): RLU of YK-107 / RLU of named substance; for Multiples (YK-108): RLU of YK-108 / RLU of named substance; for Ratio relative to SM-102: RLU of named substance / RLU of SM-102
Summary of the method: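 293T cells seeded at 10,000 per well, cultured overnight, then given LNP carrying 0.3 μg Fluc-mRNA (cationic:neutral:structured:PEG-lipid 49:10:39.5:1.5 molar). Incubated 24 h. Luciferase signal read with kit reagent on an IVIS imaging system.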

[2] = system: 293T cells; test: Cell survival rate determination (CCK-8); assay type: cell-based; conditions: for Cell survival rate (%): LNP formulation containing 1.5 μg Fluc-mRNA, 24 hours, CCK-8, absorbance at 450 nm; for cell survival rate lower than that of YK-101: cell survival rate of YK-101 minus that of named substance; for cell survival rate lower than that of YK-107: cell survival rate of YK-107 minus that of named substance; for cell survival rate lower than that of YK-108: cell survival rate of YK-108 minus that of named substance
Summary of the method: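 293T cells were seeded overnight at 10,000 cells/well in 96-well plates, then exposed for 24 h to LNP containing 1.5 μg Fluc-mRNA (cationic:neutral:structural:polymer-conjugated lipid, 49:10:39.5:1.5 molar) or to Lipofectamine 3000. Viability was read by CCK-8, 1 h incubation, absorbance 450 nm.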

[3] = Determination of particle size and polydispersity index (PDI) of lipid nanoparticles by dynamic light scattering; assay type: physicochemical; conditions: LNP formulation of named cationic lipid/DSPC/cholesterol/DMG-PEG2000 49:10:39.5:1.5; for Particle size (nm): 90° scattering angle, 25° C
Summary of the method: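 LNPs of cationic lipid/DSPC/cholesterol/DMG-PEG2000 (49:10:39.5:1.5 mol%), lipid:mRNA 15:1 w/w, carrying eGFP or Fluc mRNA, made by ethanol injection into citrate buffer pH 4–5, sonicated, PBS-exchanged by ultrafiltration. Size and PDI by dynamic light scattering after dilution in RNase-free water, 90° angle, 25 °C, triplicate.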

[4] = system: BALB/C mice; test: In vivo imaging of Fluc-mRNA expression in mice delivered by LNP formulations; conditions: for average radiation intensity, 6 h / average radiation intensity, 24 h / average radiation intensity, 48 h / average radiation intensity, 7 d: LNP containing 10 pg Fluc-mRNA, intramuscular, female BALB/C mice
Summary of the method: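 Female BALB/C mice (4-6 weeks, 17-19 g) received LNP carrying […] Fluc-mRNA intramuscularly. Substrate was given intraperitoneally at 6 h, 24 h, 48 h and 7 d, and average radiance was imaged by IVIS 5 min later.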

Structure (SMILES) | Relative light unit (RLU) [1] | Multiples (YK-107) [1] | Multiples (YK-108) [1] | Ratio relative to SM-102 [1] | Cell survival rate (%) [2] | cell survival rate lower than that of YK-101 [2] | cell survival rate lower than that of YK-107 [2] | cell survival rate lower than that of YK-108 [2] | PDI(%) [3] | Particle size (nm) [3] | average radiation intensity of YK-101, times that of named substance ([4]; 6 h) | average radiation intensity of YK-107, times that of named substance ([4]; 6 h) | average radiation intensity of YK-108, times that of named substance ([4]; 6 h) | average radiation intensity of YK-101, times that of named substance ([4]; 24 h) | average radiation intensity of YK-107, times that of named substance ([4]; 24 h) | average radiation intensity of YK-108, times that of named substance ([4]; 24 h) | average radiation intensity of YK-101, times that of named substance ([4]; 48 h) | average radiation intensity of YK-107, times that of named substance ([4]; 48 h) | average radiation intensity of YK-108, times that of named substance ([4]; 48 h) | average radiation intensity of YK-101, times that of named substance ([4]; 7 d) | also measured
CCCCCCC(CCCCCC)CCOC(=O)CCCCCCCN(CCO)CCCCCCCC(=O)OCCC(CCCCCC)CCCCCC [Compound 23, bis(3-hexylnonyl)-8, 8′-((2-hydroxyethyl)azadialkyl)dioctanoate, reference compound] | 1290824 RLU | 17.32 | 19.10 | 0.84 | 70.91% | 19.21% | 19.54% | 18.95% | 7.7% | 140 nm | 2.5 times | 2.7 times | 3.4 times | 9.4 times | 11.6 times | 12.5 times | 5.6 times | 6.8 times | 7.0 times | 2.1 times | Multiples (YK-101) ([1]; RLU of YK-101 / RLU of named substance): 15.75; average radiation intensity of YK-107, times that of named substance ([4]; 7 d): 2.3 times; average radiation intensity of YK-108, times that of named substance ([4]; 7 d): 2.4 times; average radiation intensity, 6 h ([4]; 6 h): 599850; average radiation intensity, 24 h ([4]; 24 h): 112670; average radiation intensity, 48 h ([4]; 48 h): 33060; average radiation intensity, 7 d ([4]; 7 d): 5863
CCCCCCCCCCOC(=O)CCCN(CCO)CCCCC(=O)OCCC(CCCCCC)CCCCCC [YK-104] | 1693707 RLU | 13.20 | 14.56 | 1.10 | 73.55% | 16.57% | 16.90% | 16.31% | 26.9% | 200 nm | 2.0 times | 2.1 times | 2.7 times | 9.3 times | 11.4 times | 12.3 times | 5.6 times | 6.8 times | 7.0 times | 1.5 times | difference from SM-102 in Fluc-mRNA fluorescence (GraphPad Prism analysis) ([1]; statistical comparison with SM-102): no significant difference; average radiation intensity of YK-107, times that of named substance ([4]; 7 d): 1.7 times; average radiation intensity of YK-108, times that of named substance ([4]; 7 d): 1.8 times; average radiation intensity, 6 h ([4]; 6 h): 747000; average radiation intensity, 24 h ([4]; 24 h): 113940; average radiation intensity, 48 h ([4]; 48 h): 33095; average radiation intensity, 7 d ([4]; 7 d): 7969
